{"source": "paper PMC8241751", "about": "“Influence of the Dabcyl group on the cellular uptake of cationic peptides: short oligoarginines as efficient cell-penetrating peptides” (Amino Acids, 2021)", "key": {"[1]": {"system": "MDA-MB-231 cells", "assay": "In vitro cytostatic activity (MTT) on MDA-MB-231", "format": "cell-based, human", "details": "3 h incubation, then 3 days in serum-containing medium, MTT assay, ± sd"}, "[2]": {"system": "HL-60 cells", "assay": "In vitro cytostatic activity (MTT) on HL-60", "format": "cell-based, human", "details": "HL-60; 3 h incubation, then 3 days in serum-containing medium; MTT assay; ± sd, three independent experiments with four parallels", "experimental": "(§1) The cells (HL-60 or MCF-7) were grown to confluency and were plated into 96-well plate with initial cell number of 5 × 10^3 per well. After 24 h incubation at 37 °C, cells were treated with the compounds at 1.28 × 10^–3–100 μM concentration range for 3 h in 200 μL final volume. Control cells were treated with serum free medium at 37 °C for 3 h. After incubation the cells were washed twice with serum free medium. For the analysis of the in vitro cytostatic effect, cells were cultured for an additional 72 h in serum containing medium. On day 4, MTT assay was carried out to determine the IC50 values of the compounds. Briefly, 45 μL of MTT solution was added to each well (2 mg/mL, dissolved in serum-free medium). Following the 4 h incubation, plates were centrifuged at 900 g for 5 min, and the supernatant was removed. The precipitated purple crystals were dissolved in 100 μL DMSO and the absorbance was determined at λ = 540 nm and λ = 620 nm using ELISA plate reader (iEMSReader, Labsystems, Finland). The percent of cytostasis was calculated using the following equation: Cytostatic effect (%) = [1 − (ODtreated/ODcontrol)] × 100; where ODtreated and ODcontrol correspond to the optical densities of the treated and the untreated control cells, respectively. In each case three independent experiments were carried out with four parallel measurements. […] The curves were defined using MicrocalTM Origin (version 9.2) software: cytostasis was plotted as a function of concentration, fitted to a sigmoidal curve, and based on this curve, the IC50 value was determined."}, "[3]": {"system": "MCF-7 cells", "assay": "In vitro cytostatic activity (MTT) on MCF-7", "format": "cell-based, human", "details": "3 h incubation, then 3 days in serum-containing medium, MTT assay, ± sd, three independent experiments with four parallels", "experimental": "as §1, with “Following the 4 h incubation, plates were centrifuged at 900 g for 5 min, and the supernatant was removed.” left out, “respectively.” for “respectively. In each case three independent experiments were carried out with four parallel measurements.”"}, "[4]": {"system": "CHO-K1 cells", "assay": "Absolute quantification of total internalised peptide by fluorometry", "details": "for Total (37 °C–4 °C) (pmoles) Endocyt. / 4 °C/37 °C (Fluoro): CHO-K1, 60 min; for Total (37 °C–4 °C) (pmoles) Endocyt.: difference of fluorometry values at 37 °C and 4 °C; for 4 °C/37 °C (Fluoro): internalisation ratio by fluorometry; for Total 4 °C (pmoles) Transloc. / Total 37 °C (pmoles) Endocyt. + Transloc.: one million CHO-K1 cells, DMEM-F12, 60 min, cell lysis, fluorometry 525 nm vs calibration curve, mean values; for Total 4 °C (pmoles) Transloc.: pronase wash; for Total 37 °C (pmoles) Endocyt. + Transloc.: trypsin wash", "experimental": "We used the quantification method described earlier (Illien et al. [2016]). […] After incubation with peptides and washing the cells with HBSS, 500 μL 0.05% trypsin/EDTA 0.05% (37 °C) or 500 µL pronase 0.05% in 100 mM Tris pH 7.4 (4 °C) was added for 5 min to hydrolyze the remaining extracellular peptide, the membrane-bound peptide and to detach cells. After addition of 100 µL enzyme inhibitors (complete mini at 4 °C (Roche) or trypsin inhibitor (soybean inhibitor 5 mg/mL) at 37 °C mixed with 100 μL bovine serum albumin (1 mg/mL), cells were transferred into a microtube, centrifuged, washed with 1 mL 50 mM Tris buffer pH 7.4, 0.1% BSA, and lysed in 200 μL 50 mM Tris pH 7.4, 1 M NaCl, 1% Nonident P40. The samples were then sonicated for 15 min (to homogenise samples) and centrifugated for 10 min at 16.000 g. Fluorescence intensity in the supernatants was monitored with a MOS 200 M fluorimeter (Biologic SAS) and the maximal intensity was detected around λ = 525 nm. The maximal intensity was retained for the calibration curve and for quantification of samples. The amount of internalised peptides was calculated by comparing the fluorescence intensity of the sample with the calibration curve. For the calibration curve, we prepared a range of peptide amounts (from 2 to 500 pmol) in the lysis buffer (50 mM Tris pH 7.4, 1 M NaCl, 1% Nonidet P40) in the presence of one million suspended cells. The samples were sonicated 15 min and centrifuged at 16.000 g for 10 min. Fluorescence intensity in the supernatants was monitored with a MOS 200 M fluorimeter (Biologic SAS, France) and the maximal intensity was detected around λ = 525 nm. The fluorescence signal of peptides only was obtained by subtracting the fluorescence intensity of cell lysates (autofluorescence) from the fluorescence intensity of the sample."}, "[5]": {"system": "CHO-K1 cells", "assay": "Relative quantification of total internalised peptide by flow cytometry", "details": "CHO-K1, 1 h, DMEM-F12, internalisation ratio by flow cytometry, intact cells, 20.000 cells", "experimental": "After incubation and washing the cells with HBSS, 500 μL 0.05% trypsin/EDTA 0.05% (37 °C) or 500 µL pronase 0.05% in 100 mM Tris-buffer (4 °C) was added for 5 min to hydrolyze the remaining extracellular peptide, the membrane-bound peptide and to detach cells. After addition of 100 µL enzyme inhibitors (complete mini at 4 °C (Roche) or trypsin inhibitor (soybean inhibitor 5 mg/mL) at 37 °C mixed with 100 μL bovine serum albumin (1 mg/mL). Cells were transferred into a microtube, centrifuged, washed with 1 mL 50 mM Tris-buffer pH 7.4, 0.1% BSA, and the cell pellet was suspended in 400 μL of PBS. The fluorescence of individual cells was analysed with a FACS Calibur flow cytometer. 20.000 cells were measured for each experimental condition. The mean fluorescence of a sample was obtained by subtracting the autofluorescence of cells from the measured mean fluorescence of cells in the presence of the peptide."}, "[6]": {"system": "HL-60 cells", "assay": "Cellular uptake by flow cytometry on HL-60 cells", "format": "cell-based, human", "details": "HL-60, 90 min, 37 °C, serum-free, concentrations of the two values not stated, Dabcyl quenches Cf", "experimental": "HL-60 cells were cultured as described above. To study the cellular uptake of fluorescent labelled compounds, 10^5 cells per well were plated on 24-well plates. After 24 h incubation at 37 °C, cells were treated with the compounds solved in the corresponding serum-free media for 90 min. The cellular uptake was analysed at 1, 5 and 10 µM concentrations. Cells treated with serum-free media for 90 min were used as control. After incubation, treatment solutions were removed and the cells were treated with 100 μL trypsin for 2 min to remove the membrane proteins in order to eliminate non-specific binding of conjugates. The effect of trypsin was terminated by 900 μL HPMI (glucose, NaHCO3, NaCl, HEPES, KCl, MgCl2, CaCl2, Na2HPO4·2H2O) (Kapus et al. [1994]) containing 10% foetal calf serum, and the cells were transferred from the plate to FACS-tubes. Cells were centrifuged at 216 g at 4 °C for 5 min and the supernatant was removed. After this procedure, cells were resuspended in 500 µL HPMI, and the intracellular fluorescence intensity of HL-60 cells was monitored (on channel FITC LP505; emission at λ = 505 nm; LP 505, BP 530/30) by flow cytometry (BD LSR II, BD Bioscience, San Jose, CA, equipped with 488 nm; Coherent Sapphire, 22 mW laser.) which is proportional to the cellular uptake. Data were analysed with FACSDiVa 5.0 software."}}, "note": "“And” between values parts separate entries of the source, which are not always exact repeats. Identical values can stand only once. Where a SMILES comes first, the peptide text is derived from it. The star is where a group is joined. 5FAM = O=C1OC2(c3ccc(O)cc3Oc3cc(O)ccc32)c2ccc(C(=O)*)cc21; X1 = CN(C)c1ccc(/N=N/c2ccc(C(=O)*)cc2)cc1"}
{"compound": "COc1cccc2c1C(=O)c1c(O)c3c(c(O)c1C2=O)C[C@@](O)(C(C)=O)C[C@@H]3O[C@H]1C[C@H](NC(=O)CCC(=O)O)[C@H](O)[C@H](C)O1", "note": "[Suc–Dau, reference compound]", "values": [{"measurement": "IC50", "setting": "[1]", "result": "> 100", "unit": "µM"}, {"measurement": "IC50", "setting": "[2]", "result": "33.5 ± 1.1", "unit": "µM"}, {"measurement": "IC50", "setting": "[3]", "result": "24.5 ± 7.1", "unit": "µM"}]}
{"compound": "Dabcyl–RRRRK(MTX)–NH2 [Dabcyl–Arg4–Lys(MTX)–NH2]", "values": [{"measurement": "IC50", "setting": "[1]", "result": "70.9 ± 30.1", "unit": "µM"}]}
{"compound": "Dabcyl–RRRRRRK(MTX)–NH2 [Dabcyl–Arg6–Lys(MTX)–NH2]", "values": [{"measurement": "IC50", "setting": "[1]", "result": "50.2 ± 16", "unit": "µM"}, {"measurement": "IC50", "setting": "[3]", "result": "46.4 ± 18.5", "unit": "µM"}]}
{"compound": "CN(C)c1ccc(/N=N/c2ccc(C(=O)N[C@@H](CCCNC(=N)N)C(=O)N[C@@H](CCCNC(=N)N)C(=O)N[C@@H](CCCNC(=N)N)C(=O)N[C@@H](CCCNC(=N)N)C(=O)N[C@@H](CCCCNC(=O)c3ccc4c(c3)C(=O)OC43c4ccc(O)cc4Oc4cc(O)ccc43)C(N)=O)cc2)cc1", "note": "[Dabcyl–Arg4–Lys(Cf)–NH2] (X1-RRRRK(5FAM)-NH2)", "values": [{"measurement": "Total (37 °C–4 °C) (pmoles) Endocyt.", "setting": "[4]; [peptide] 1 μM", "result": 0.3, "unit": "pmol"}, {"measurement": "4 °C/37 °C (Fluoro)", "setting": "[4]; [peptide] 1 μM", "result": 0.57}, {"measurement": "Total 4 °C (pmoles) Transloc.", "setting": "[4]; [peptide] 1 μM", "result": "0.4 ± 0.06", "unit": "pmol"}, {"measurement": "Total 37 °C (pmoles) Endocyt. + Transloc.", "setting": "[4]; [peptide] 1 μM", "result": "0.7 ± 0.1", "unit": "pmol"}, {"measurement": "Total (37 °C–4 °C) (pmoles) Endocyt.", "setting": "[4]; [peptide] 2.5 μM", "result": 1.3, "unit": "pmol"}, {"measurement": "4 °C/37 °C (Fluoro)", "setting": "[4]; [peptide] 2.5 μM", "result": 0.43}, {"measurement": "Total 4 °C (pmoles) Transloc.", "setting": "[4]; [peptide] 2.5 μM", "result": "0.9 ± 0.1", "unit": "pmol"}, {"measurement": "Total 37 °C (pmoles) Endocyt. + Transloc.", "setting": "[4]; [peptide] 2.5 μM", "result": "2.2 ± 0.2", "unit": "pmol"}, {"measurement": "Total (37 °C–4 °C) (pmoles) Endocyt.", "setting": "[4]; [peptide] 5 μM", "result": 6, "unit": "pmol"}, {"measurement": "4 °C/37 °C (Fluoro)", "setting": "[4]; [peptide] 5 μM", "result": 0.22}, {"measurement": "Total 4 °C (pmoles) Transloc.", "setting": "[4]; [peptide] 5 μM", "result": "1.8 ± 0.1", "unit": "pmol"}, {"measurement": "Total 37 °C (pmoles) Endocyt. + Transloc.", "setting": "[4]; [peptide] 5 μM", "result": "7.8 ± 0.9", "unit": "pmol"}, {"measurement": "Total (37 °C–4 °C) (pmoles) Endocyt.", "setting": "[4]; [peptide] 10 μM", "result": 26, "unit": "pmol"}, {"measurement": "4 °C/37 °C (Fluoro)", "setting": "[4]; [peptide] 10 μM", "result": 0.14}, {"measurement": "Total 4 °C (pmoles) Transloc.", "setting": "[4]; [peptide] 10 μM", "result": "4.2 ± 0.3", "unit": "pmol"}, {"measurement": "Total 37 °C (pmoles) Endocyt. + Transloc.", "setting": "[4]; [peptide] 10 μM", "result": "30 ± 3.3", "unit": "pmol"}, {"measurement": "4 °C/37 °C (Flow cyto.)", "setting": "[5]; [peptide] 1 μM", "result": 0.17}, {"measurement": "4 °C/37 °C (Flow cyto.)", "setting": "[5]; [peptide] 2.5 μM", "result": 0.12}, {"measurement": "4 °C/37 °C (Flow cyto.)", "setting": "[5]; [peptide] 5 μM", "result": 0.10}, {"measurement": "4 °C/37 °C (Flow cyto.)", "setting": "[5]; [peptide] 10 μM", "result": 0.04}, {"measurement": "Fluorescence intensity of the cells, times higher than hexaarginine", "setting": "[6]", "result": "1.6 times and 2.8 times"}]}
